Data from PMC3038857, “Using Nuclear Receptor Activity to Stratify Hepatocarcinogens” (PLoS ONE, 2011).
Where two headings read alike, the source gives them in different places.

Key:
CYP3A4 = experiment: CLZD_CYP3A4: Change in expression of CYP3A4 (primary human hepatocytes); assay type: cell-based; conditions: 24 hr
Method in brief: (§1)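 Primary human hepatocyte cultures were exposed to test chemicals at 5 concentrations (0.004-40 µM) for 6, 24 or 48 hr.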

Rat Liver [1] = conditions: ref ToxRefDB, cited from earlier work
PXR (NR1I2) [2] = target: T1, PXR (NR1I2) (Homo sapiens, UniProt O75469); experiment: ATG_PXRE_CIS: Factorial reporter gene assay (HepG2); assay type: cell-based; design: endogenous in cells; host or cells: HepG2; conditions: HepG2
T1 sequence (O75469 1-434): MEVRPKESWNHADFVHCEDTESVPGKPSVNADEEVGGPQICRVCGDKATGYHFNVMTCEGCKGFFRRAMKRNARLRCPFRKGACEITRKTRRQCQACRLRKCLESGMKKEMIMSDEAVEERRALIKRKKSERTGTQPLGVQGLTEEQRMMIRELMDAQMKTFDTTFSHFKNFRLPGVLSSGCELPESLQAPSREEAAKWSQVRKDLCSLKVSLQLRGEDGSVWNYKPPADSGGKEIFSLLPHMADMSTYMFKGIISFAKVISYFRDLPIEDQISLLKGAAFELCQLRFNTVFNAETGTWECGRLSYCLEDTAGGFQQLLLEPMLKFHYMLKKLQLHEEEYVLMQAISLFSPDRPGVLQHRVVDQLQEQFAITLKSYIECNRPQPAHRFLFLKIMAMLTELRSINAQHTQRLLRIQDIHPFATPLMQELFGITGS
Method in brief: (§2)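 Transfected HepG2 line; multiplexed reporter read-out. PXRE = cis library (48 TF sites); ERRg/FXR/PPARg = trans one-hybrid library (25 units). Dose series of 7, MTC downward by 3x.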

[3] = target: T2, ESR1 (estrogen receptor 1) (Homo sapiens, UniProt P03372); experiment: ATG_ERa_TRANS: Factorial reporter gene assay (HepG2); assay type: cell-based; conditions: HepG2
T2 construct: expressed in transfected cells; host or cells: HepG2
T2 sequence (P03372 whole entry): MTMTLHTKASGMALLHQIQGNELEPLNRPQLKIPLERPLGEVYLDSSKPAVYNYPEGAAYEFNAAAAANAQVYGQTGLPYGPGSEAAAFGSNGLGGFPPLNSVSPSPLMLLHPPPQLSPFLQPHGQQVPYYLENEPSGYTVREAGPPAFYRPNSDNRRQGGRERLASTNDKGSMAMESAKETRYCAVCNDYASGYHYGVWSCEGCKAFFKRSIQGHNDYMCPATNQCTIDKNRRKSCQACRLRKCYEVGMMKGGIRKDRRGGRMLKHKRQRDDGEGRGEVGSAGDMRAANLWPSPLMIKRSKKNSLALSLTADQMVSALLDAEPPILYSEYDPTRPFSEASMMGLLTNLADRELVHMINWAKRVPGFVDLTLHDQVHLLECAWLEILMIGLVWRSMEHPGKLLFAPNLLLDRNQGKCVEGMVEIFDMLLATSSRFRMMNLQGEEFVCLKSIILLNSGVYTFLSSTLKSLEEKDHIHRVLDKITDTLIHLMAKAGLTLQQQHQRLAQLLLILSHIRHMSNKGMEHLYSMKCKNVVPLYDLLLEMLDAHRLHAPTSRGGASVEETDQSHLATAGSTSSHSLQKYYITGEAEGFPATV
Description: (§3) A multiple reporter transcription unit (MRTU) library consisting of 48 transcription factor binding sites was transfected into the HepG2 human liver hepatoma cell line. In addition to the cis-acting reporter genes (CIS), a modification of the approach was used to generate a trans-system (TRANS) with a mammalian one-hybrid assay consisting of an additional 25 MRTU library reporting the activity of nuclear receptor super-family members. […] These assays were performed by Attagene Inc. (Morrisville NC) under contract to EPA.
(§4) In addition to the cis-acting reporter genes (CIS), a modification of the approach was used to generate a trans-system (TRANS) with a mammalian one-hybrid assay consisting of an additional 25 MRTU library reporting the activity of nuclear receptor super-family members. […] Chemicals were then tested in the CIS and TRANS assays at seven concentrations starting at the MTC and followed by three-fold serial dilutions. These assays were performed by Attagene Inc. (Morrisville NC) under contract to EPA. Detailed description of the methods, data and analysis methods for this dataset will be presented in a separate publication.

Mouse Liver [4] = conditions: ref ToxRefDB, cited from earlier work
Mouse Liver [5] = conditions: ref ToxRefDB, cited from earlier work; remark: listed apart in the source
PXR (NR1I2) [6] = target: T1, PXR (NR1I2); experiment: NVS_NR_hPXR: Human PXR Fluormone PXR (SXR) green (cell-free HTS); assay type: binding
Method in brief: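 Cell-free biochemical binding assays; chemicals first screened at a single concentration of 25 […] M in duplicate wells. Signals normalised to same-plate solvent controls as percent of neutral control, and AC50 values came from Hill-equation fits of concentration-response curves.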

Rat Liver [7] = conditions: ref ToxRefDB, cited from earlier work; remark: listed apart in the source
CYP2B6 = experiment: CLZD_CYP2B6: Change in expression of CYP2B6 (primary human hepatocytes); assay type: cell-based; conditions: 24 hr
Method in brief: as §1

Rat Liver [8] = conditions: ref ToxRefDB, cited from earlier work; remark: listed apart in the source
Mouse Liver [9] = conditions: ref ToxRefDB, cited from earlier work; remark: listed apart in the source
[10] = target: T3, AHR (aryl hydrocarbon receptor) (Homo sapiens, UniProt P35869); experiment: ATG_Ahr_CIS: Factorial reporter gene assay (multiplexed transcription reporter, HepG2); assay type: cell-based; conditions: HepG2
T3 construct: endogenous in cells; host or cells: HepG2
T3 sequence (P35869 11-848): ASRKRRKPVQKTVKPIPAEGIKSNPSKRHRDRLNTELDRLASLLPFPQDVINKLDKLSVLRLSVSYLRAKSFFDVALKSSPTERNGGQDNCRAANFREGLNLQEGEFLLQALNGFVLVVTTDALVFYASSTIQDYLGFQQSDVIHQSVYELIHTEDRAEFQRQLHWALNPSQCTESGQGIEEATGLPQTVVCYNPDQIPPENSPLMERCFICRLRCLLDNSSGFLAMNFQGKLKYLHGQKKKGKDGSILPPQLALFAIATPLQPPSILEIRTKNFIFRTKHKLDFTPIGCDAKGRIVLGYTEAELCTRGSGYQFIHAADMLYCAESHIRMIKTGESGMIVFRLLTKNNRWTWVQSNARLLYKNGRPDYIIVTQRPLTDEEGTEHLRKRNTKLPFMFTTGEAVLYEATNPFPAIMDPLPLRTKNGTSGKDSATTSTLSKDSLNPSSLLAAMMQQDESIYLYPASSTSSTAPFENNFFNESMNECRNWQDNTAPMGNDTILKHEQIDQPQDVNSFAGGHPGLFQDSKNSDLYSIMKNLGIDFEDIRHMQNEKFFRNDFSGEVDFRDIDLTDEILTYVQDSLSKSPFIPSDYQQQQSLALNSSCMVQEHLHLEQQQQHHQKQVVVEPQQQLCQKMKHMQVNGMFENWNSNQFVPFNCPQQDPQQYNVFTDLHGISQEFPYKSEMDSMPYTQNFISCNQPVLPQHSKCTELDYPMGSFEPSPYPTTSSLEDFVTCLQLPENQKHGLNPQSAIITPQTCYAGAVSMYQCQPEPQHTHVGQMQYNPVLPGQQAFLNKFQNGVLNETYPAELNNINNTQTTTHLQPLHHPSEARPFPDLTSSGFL
Description: as §3, §4

[11] = target: T4, PPARG (peroxisome proliferator-activated receptor gamma) (Homo sapiens, UniProt P37231); experiment: ATG_PPARg_TRANS: Factorial reporter gene assay (HepG2); assay type: cell-based; conditions: HepG2
T4 construct: expressed in transfected cells; host or cells: HepG2
T4 sequence (P37231 1-505): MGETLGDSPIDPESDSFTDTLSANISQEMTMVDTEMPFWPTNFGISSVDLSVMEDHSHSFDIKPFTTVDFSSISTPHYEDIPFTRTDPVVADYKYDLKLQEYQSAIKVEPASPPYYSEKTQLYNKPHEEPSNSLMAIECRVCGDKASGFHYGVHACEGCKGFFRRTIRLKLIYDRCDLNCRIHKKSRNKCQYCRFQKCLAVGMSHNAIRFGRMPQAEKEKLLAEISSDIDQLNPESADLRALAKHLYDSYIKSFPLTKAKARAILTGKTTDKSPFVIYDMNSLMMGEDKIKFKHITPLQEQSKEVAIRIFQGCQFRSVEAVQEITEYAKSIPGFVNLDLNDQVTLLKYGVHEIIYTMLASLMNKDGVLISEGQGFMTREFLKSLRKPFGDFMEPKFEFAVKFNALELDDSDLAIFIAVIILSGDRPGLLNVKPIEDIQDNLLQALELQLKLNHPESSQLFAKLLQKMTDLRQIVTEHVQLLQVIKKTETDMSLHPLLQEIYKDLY
Method in brief: as §2

PXR (NR1I2) [12] = target: T1, PXR (NR1I2); experiment: ATG_PXR_TRANS: Factorial reporter gene assay (HepG2); assay type: cell-based; design: endogenous in cells; host or cells: HepG2; conditions: HepG2
Method in brief: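 Seven concentrations per chemical, three-fold dilutions down from the MTC, were tested in HepG2 hepatoma cells. Those cells carried a multiple reporter transcription unit library, read either as cis transcription-factor-site reporters or as a trans mammalian one-hybrid panel for nuclear receptors.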

CYP1A1 = experiment: CLZD_CYP1A1: Change in expression of CYP1A1 (primary human hepatocytes); assay type: cell-based; conditions: 24 hr
Method in brief: as §1

CYP1A2 = experiment: CLZD_CYP1A2: Change in expression of CYP1A2 (primary human hepatocytes); assay type: cell-based; conditions: 24 hr
Method in brief: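 Read-out: mRNA change by multiplexed quantitative nuclease protection assay. Primary human hepatocytes; 5 concentrations, 0.004-40 µM; exposures 6, 24, 48 hr.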

In the case of CC1(C)C(C=C(Cl)Cl)C1C(=O)OCc1cccc(Oc2ccccc2)c1 (stereo not drawn) [r242], the CLZD_CYP3A4_24 (CYP3A4) is listed as 5.668, the CHR_Rat_Liver_1_AnyLesion (Rat Liver [1]; rat, chronic study) is listed as 6 and the ATG_PXRE_CIS (PXR (NR1I2) [2]) is listed as 4.959. For the same compound, the ATG_ERa_TRANS [3] was 4.523, the CHR_Mouse_Liver_3_NeoplasticLesion (Mouse Liver [4]; mouse, chronic study) was 6 and the CHR_Mouse_Liver_2_PreneoplasticLesion (Mouse Liver [5]; mouse, chronic study) was 6. For the same compound, the NVS_NR_hPXR (PXR (NR1I2) [6]) was 4.444, the CHR_Rat_Liver_3_NeoplasticLesion (Rat Liver [7]; rat, chronic study) was 0 and the CLZD_CYP2B6_24 (CYP2B6) was 4.991. The CHR_Rat_Liver_2_PreneoplasticLesion (Rat Liver [8]; rat, chronic study) was 0, the CHR_Mouse_Liver_1_AnyLesion (Mouse Liver [9]; mouse, chronic study) was 6 and the ATG_Ahr_CIS [10] was 4.125.

For CCCCC(CC)CN1C(=O)C2C3C=CC(C3)C2C1=O (stereo not drawn) [row 212], the CLZD_CYP3A4_24 (CYP3A4) is given as 4.752, the ATG_PPARg_TRANS [11] is given as 4.284 and the CHR_Rat_Liver_1_AnyLesion (Rat Liver [1]; chronic rat study, liver) is given as 6. The ATG_PXRE_CIS (PXR (NR1I2) [2]) was 5.06, the ATG_ERa_TRANS [3] was 4.328 and the CHR_Mouse_Liver_3_NeoplasticLesion (Mouse Liver [4]; chronic mouse study, liver) was 6. For the same compound, the CHR_Mouse_Liver_2_PreneoplasticLesion (Mouse Liver [5]; chronic mouse study, liver) was 6, the ATG_PXR_TRANS (PXR (NR1I2) [12]) was 4.745 and the NVS_NR_hPXR (PXR (NR1I2) [6]) was 4.582. For the same compound, the CHR_Rat_Liver_3_NeoplasticLesion (Rat Liver [7]; chronic rat study, liver) was 0, the CLZD_CYP2B6_24 (CYP2B6) was 5.005 and the CHR_Rat_Liver_2_PreneoplasticLesion (Rat Liver [8]; chronic rat study, liver) was 6. The CLZD_CYP1A1_24 (CYP1A1) was 4.883, the CHR_Mouse_Liver_1_AnyLesion (Mouse Liver [9]; chronic mouse study, liver) was 6 and the CLZD_CYP1A2_24 (CYP1A2) was 5.284.
